Assay results published in patent US7498349B2, “Biaryl compounds having anti-infective activity” (Genesoft Pharmaceuticals, Inc., priority 2002, dated 2009).
Converted amounts (≈) assume the structure as drawn.

Columns and labels:
E. faecalis ATCC 29212 = experiment: MIC, NCCLS broth microdilution assay; type: cell-based, Enterococcus faecalis; settings: E. faecalis ATCC 29212
S. aureus ATCC 13709 = experiment: MIC, NCCLS broth microdilution assay; type: cell-based, Staphylococcus aureus; settings: S. aureus ATCC 13709, methicillin sensitive strain (MSSA)
B. cereus ATCC 11778 = experiment: MIC, NCCLS broth microdilution assay; type: cell-based, Bacillus cereus; settings: B. cereus ATCC 11778
C. albicans ATCC 38247 = experiment: MIC, antifungal assay; type: cell-based, Candida albicans; settings: C. albicans ATCC 38247
From the text: In vitro biological activity data were collected for a variety of microorganisms, including Bacillus cereus (ATCC 11778), Staphylococcus aureus (ATCC 33591; ATCC 27660, a methicillin resistant strain (MRSA); ATCC 13709, a methicillin sensitive strain (MSSA)), Escherichia coli (ATCC 25922), Enterococcus faecalis (ATCC 29212), Streptococcus pneumoniae (ATCC 49619; ATCC 51422, a penicillin resistant strain (PRSP)), Enterococcus faecium (ATCC 51559, a vancomycin resistant strain (VRE)), and Staphylococcus epidermidis (ATCC 12228). Additionally, antifungal activity data were collected for Candida albicans (ATCC 38247).
The minimal inhibition concentration (MIC) of these compounds was determined using the National Committee for Clinical Laboratory Standards (NCCLS) broth microdilution assay in microtiter plates, as set forth in: (1) the guidelines of the National Committee for Clinical Laboratory Standards (NCCLS) Document M7-A4 (NCCLS, 1997); (2) the guidelines of the National Committee for Clinical Laboratory Standards (NCCLS) Document M11-A4 (NCCLS, 1997); and (3) the guidelines and reference method of the National Committee for Clinical Laboratory Standards (NCCLS) Document M27 -T (NCCLS, 1995). For antifungal assays, the method recommended in Murray, PR., 1995 Manual of Clinical Microbiology (ASM Press, Washington, D.C.), was employed.

S. aureus ATCC 33591 = experiment: MIC, NCCLS broth microdilution assay; type: cell-based, Staphylococcus aureus; settings: S. aureus ATCC 33591
From the text: In vitro biological activity data were collected for a variety of microorganisms, including Bacillus cereus (ATCC 11778), Staphylococcus aureus (ATCC 33591; ATCC 27660, a methicillin resistant strain (MRSA); ATCC 13709, a methicillin sensitive strain (MSSA)), Escherichia coli (ATCC 25922), Enterococcus faecalis (ATCC 29212), Streptococcus pneumoniae (ATCC 49619; ATCC 51422, a penicillin resistant strain (PRSP)), Enterococcus faecium (ATCC 51559, a vancomycin resistant strain (VRE)), and Staphylococcus epidermidis (ATCC 12228).
The minimal inhibition concentration (MIC) of these compounds was determined using the National Committee for Clinical Laboratory Standards (NCCLS) broth microdilution assay in microtiter plates, as set forth in: (1) the guidelines of the National Committee for Clinical Laboratory Standards (NCCLS) Document M7-A4 (NCCLS, 1997); (2) the guidelines of the National Committee for Clinical Laboratory Standards (NCCLS) Document M11-A4 (NCCLS, 1997); and (3) the guidelines and reference method of the National Committee for Clinical Laboratory Standards (NCCLS) Document M27 -T (NCCLS, 1995).

S. pneumoniae ATCC 49619 = experiment: MIC, NCCLS broth microdilution assay; type: cell-based, Streptococcus pneumoniae; settings: S. pneumoniae ATCC 49619
S. aureus ATCC 27660 = experiment: MIC, NCCLS broth microdilution assay; type: cell-based, Staphylococcus aureus; settings: S. aureus ATCC 27660, methicillin resistant strain (MRSA)
E. coli ATCC 25922 = experiment: MIC, NCCLS broth microdilution assay; type: cell-based, Escherichia coli; settings: E. coli ATCC 25922

Structure (SMILES) | Minimum Inhibitory Concentration (MIC) (E. faecalis ATCC 29212) | Minimum Inhibitory Concentration (MIC) (S. aureus ATCC 13709) | Minimum Inhibitory Concentration (MIC) (B. cereus ATCC 11778) | Minimum Inhibitory Concentration (MIC) (C. albicans ATCC 38247) | Minimum Inhibitory Concentration (MIC) (S. aureus ATCC 33591) | Minimum Inhibitory Concentration (MIC) (S. pneumoniae ATCC 49619) | Minimum Inhibitory Concentration (MIC) (S. aureus ATCC 27660) | Minimum Inhibitory Concentration (MIC) (E. coli ATCC 25922) | MIC (E. faecalis ATCC 29212; Enterococcus faecalis, ATCC29212, read-out: Minimum Inhibitory Concentration (MIC)) | MIC (S. aureus ATCC 13709; Staphylococcus aureus, ATCC 13709 / MSSA, read-out: Minimum Inhibitory Concentration (MIC)) | MIC (B. cereus ATCC 11778; Bacillus cereus, ATCC11778, read-out: Minimum Inhibitory Concentration (MIC)) | MIC (C. albicans ATCC 38247; Candida albicans, ATCC38247, read-out: Minimum Inhibitory Concentration (MIC)) | MIC (S. aureus ATCC 33591; Staphylococcus aureus, ATCC33591, read-out: Minimum Inhibitory Concentration (MIC)) | MIC (S. pneumoniae ATCC 49619; Streptococcus pneumoniae, ATCC49619, read-out: Minimum Inhibitory Concentration (MIC)) | MIC (S. aureus ATCC 27660; Staphylococcus aureus, ATCC 27660 / MRSA, read-out: Minimum Inhibitory Concentration (MIC)) | MIC (E. coli ATCC 25922; Escherichia coli, ATCC25922, read-out: Minimum Inhibitory Concentration (MIC))
O=C(Nc1ccc(-c2cc3ccccc3[nH]2)cc1)c1nsc(NCCN2CCNCC2)c1Cl [Compound A-59] | +++ (MIC ≦ 4) | ++ (4 < MIC < 12) | + (12 ≦ MIC ≦ 32) | +++ (MIC ≦ 4) | + (12 ≦ MIC ≦ 32) | + (12 ≦ MIC ≦ 32) | ++ (4 < MIC < 12) | >32 µg/mL | – | – | – | – | – | – | – | –
CN(CCCN)CCCNc1ncccc1C(=O)Nc1ccc(-c2cc3ccccc3o2)nc1 [Compound A-39] | – | – | – | – | – | – | – | – | 12 to 32 µg/mL (≈ 26.2 to 69.8 µM) | 12 to 32 µg/mL (≈ 26.2 to 69.8 µM) | 12 to 32 µg/mL (≈ 26.2 to 69.8 µM) | > 32 µg/mL | 12 to 32 µg/mL (≈ 26.2 to 69.8 µM) | 12 to 32 µg/mL (≈ 26.2 to 69.8 µM) | 12 to 32 µg/mL (≈ 26.2 to 69.8 µM) | > 32 µg/mL
O=C(Nc1ccc(-c2cc3ccccc3o2)cc1)c1cccnc1NCCN1CCSCC1 [Compound A-14] | >32 µg/mL | >32 µg/mL | >32 µg/mL | >32 µg/mL | – | >32 µg/mL | >32 µg/mL | >32 µg/mL | – | – | – | – | – | – | – | –
Cc1ccc2nc(-c3ccc(NC(=O)c4nsc(NCCCN(C)C)c4Cl)cc3)sc2c1 [Compound A-54] | +++ (MIC ≦ 4) | +++ (MIC ≦ 4) | +++ (MIC ≦ 4) | +++ (MIC ≦ 4) | +++ (MIC ≦ 4) | + (12 ≦ MIC ≦ 32) | +++ (MIC ≦ 4) | >32 µg/mL | – | – | – | – | – | – | – | –
CN(C)CCCNc1ncccc1C(=O)Nc1ccc(-c2cc3ccccc3s2)nc1 [Compound A-74] | ++ (4 < MIC < 12) | ++ (4 < MIC < 12) | + (12 ≦ MIC ≦ 32) | + (12 ≦ MIC ≦ 32) | ++ (4 < MIC < 12) | + (12 ≦ MIC ≦ 32) | + (12 ≦ MIC ≦ 32) | >32 µg/mL | – | – | – | – | – | – | – | –
O=C(Nc1ccc(-c2cc3ccccc3o2)cc1)c1cccnc1N1CCNCC1 [Compound A-20] | + (12 ≦ MIC ≦ 32) | ++ (4 < MIC < 12) | + (12 ≦ MIC ≦ 32) | ++ (4 < MIC < 12) | – | + (12 ≦ MIC ≦ 32) | ++ (4 < MIC < 12) | + (12 ≦ MIC ≦ 32) | – | – | – | – | – | – | – | –
CCN(CC)CCCNc1snc(C(=O)Nc2ccc(-c3cc4ccccc4o3)cc2)c1Cl [Compound A-5] | +++ (MIC ≦ 4) | +++ (MIC ≦ 4) | ++ (4 < MIC < 12) | ++ (4 < MIC < 12) | – | >32 µg/mL | +++ (MIC ≦ 4) | >32 µg/mL | – | – | – | – | – | – | – | –
NCCCCNc1snc(C(=O)Nc2ccc(-c3cc4ccccc4o3)cc2)c1Cl [Compound A-4] | +++ (MIC ≦ 4) | +++ (MIC ≦ 4) | + (12 ≦ MIC ≦ 32) | + (12 ≦ MIC ≦ 32) | – | >32 µg/mL | +++ (MIC ≦ 4) | >32 µg/mL | – | – | – | – | – | – | – | –
NCCN1CCN(c2ncccc2C(=O)Nc2ccc(-c3cc4ccccc4o3)cc2)CC1 [Compound A-17] | + (12 ≦ MIC ≦ 32) | ++ (4 < MIC < 12) | + (12 ≦ MIC ≦ 32) | + (12 ≦ MIC ≦ 32) | – | + (12 ≦ MIC ≦ 32) | + (12 ≦ MIC ≦ 32) | >32 µg/mL | – | – | – | – | – | – | – | –
NCCCNc1ncccc1C(=O)Nc1ccc(-c2cc3ccccc3o2)cc1 [Compound A-9] | +++ (MIC ≦ 4) | +++ (MIC ≦ 4) | +++ (MIC ≦ 4) | + (12 ≦ MIC ≦ 32) | – | + (12 ≦ MIC ≦ 32) | +++ (MIC ≦ 4) | + (12 ≦ MIC ≦ 32) | – | – | – | – | – | – | – | –
O=C(Nc1ccc(-c2cc3ccccc3o2)cc1)c1cccnc1NCCN1CCCC1 [Compound A-15] | +++ (MIC ≦ 4) | +++ (MIC ≦ 4) | ++ (4 < MIC < 12) | + (12 ≦ MIC ≦ 32) | – | + (12 ≦ MIC ≦ 32) | +++ (MIC ≦ 4) | >32 µg/mL | – | – | – | – | – | – | – | –
NCCOCCOCCNc1snc(C(=O)Nc2ccc(-c3cc4ccccc4o3)cc2)c1Cl [Compound A-6] | +++ (MIC ≦ 4) | +++ (MIC ≦ 4) | >32 µg/mL | ++ (4 < MIC < 12) | – | >32 µg/mL | +++ (MIC ≦ 4) | >32 µg/mL | – | – | – | – | – | – | – | –
NCCOCCOCCNc1ncccc1C(=O)Nc1ccc(-c2cc3ccccc3o2)cc1 [Compound A-22] | ++ (4 < MIC < 12) | ++ (4 < MIC < 12) | ++ (4 < MIC < 12) | +++ (MIC ≦ 4) | – | + (12 ≦ MIC ≦ 32) | ++ (4 < MIC < 12) | >32 µg/mL | – | – | – | – | – | – | – | –
O=C(Nc1ccc(-c2cc3ccccc3o2)cc1)c1cccnc1NCCCN1CCOCC1 [Compound A-16] | ++ (4 < MIC < 12) | +++ (MIC ≦ 4) | >32 µg/mL | + (12 ≦ MIC ≦ 32) | – | + (12 ≦ MIC ≦ 32) | +++ (MIC ≦ 4) | >32 µg/mL | – | – | – | – | – | – | – | –
Cc1ccc2nc(-c3ccc(NC(=O)c4nsc(NCCCN(C)CCCN)c4Cl)cc3)sc2c1 [Compound A-51] | +++ (MIC ≦ 4) | +++ (MIC ≦ 4) | +++ (MIC ≦ 4) | +++ (MIC ≦ 4) | – | +++ (MIC ≦ 4) | +++ (MIC ≦ 4) | >32 µg/mL | – | – | – | – | – | – | – | –
Cc1ccc2nc(-c3ccc(NC(=O)c4nsc(NCCN)c4Cl)cc3)sc2c1 [Compound A-52] | +++ (MIC ≦ 4) | +++ (MIC ≦ 4) | + (12 ≦ MIC ≦ 32) | >32 µg/mL | +++ (MIC ≦ 4) | >32 µg/mL | – | >32 µg/mL | – | – | – | – | – | – | – | –
O=C(Nc1ccc(-c2cc3ccccc3o2)cc1)c1cccnc1NCCN1CCNCC1 [Compound A-10] | + (12 ≦ MIC ≦ 32) | – | + (12 ≦ MIC ≦ 32) | >32 µg/mL | – | + (12 ≦ MIC ≦ 32) | – | >32 µg/mL | – | – | – | – | – | – | – | –
O=C(Nc1ccc(-c2cc3ccccc3o2)cc1)c1cccnc1NCCN1CCCCC1 [Compound A-13] | +++ (MIC ≦ 4) | +++ (MIC ≦ 4) | +++ (MIC ≦ 4) | + (12 ≦ MIC ≦ 32) | – | + (12 ≦ MIC ≦ 32) | +++ (MIC ≦ 4) | >32 µg/mL | – | – | – | – | – | – | – | –
O=C(Nc1ccc(-c2cc3ccccc3o2)cc1)c1nsc(NCCN2CCNCC2)c1Cl [Compound A-1] | +++ (MIC ≦ 4) | +++ (MIC ≦ 4) | +++ (MIC ≦ 4) | + (12 ≦ MIC ≦ 32) | – | + (12 ≦ MIC ≦ 32) | +++ (MIC ≦ 4) | >32 µg/mL | – | – | – | – | – | – | – | –
